Assay results reported in patent publication US7048919B2, “Osteoclast secreted chemokine and uses thereof” (The UAB Research Foundation, priority 2000, dated 2006).
Entries after “also recorded” stand apart in the source; their conditions may differ.

Legend:
calmodulin = assay: Calmodulin protein levels in osteoclasts; format: cell-based, avian; conditions: for calmodulin protein levels: PMA treated osteoclasts
avian osteoclasts [1] = assay: Osteoclastic bone resorption assay (3H proline release from labeled bone); format: cell-based, avian (white Leghorn hens); conditions: for effect on PMA stimulated increase in bone resorption: PMA stimulated osteoclasts
Description: Bone resorption assays using 150 μg labeled bone were cultured for four days in the presence of increasing concentrations of PMA. Resorption activity was quantified by measuring ^3H proline released to the media. Data represent the mean +/− SEM of n=5 experiments each performed in quadruplicate.
Avian osteoclasts (from egg-laying white Leghorn hens) were utilized because gram quantities of pure osteoclasts are readily obtained. Avian osteoclasts (>10^7 cells) were isolated as previously described (16). Laying hens on a limited calcium diet produce massive numbers of osteoclasts to meet the calcium requirement for eggshell production. The endosteum of such birds, is >50% osteoclasts by mass. Medullary bone is scraped from the endosteum into calcium- and magnesium-free phosphate-buffered saline (PBS) at 4° C. Cells are separated from matrix by washing through 100 μm nylon filters and sedimented through 70% newborn calf serum. Osteoclasts purified by density gradient sedimentation, result in preparations in which osteoclasts represent ˜75–90% of viable cells. Following sedimentation, macrophages represent <2% of the cell mass. For experiments requiring homogeneous osteoclasts the cells purified by serum sedimentation are then affinity purified b y attachment to bone fragments and then resedimented 24 hrs later, eliminating essentially all but viable, bone-attached osteoclasts (17).
L-[^3H]-proline-labeled devitalized bone is used as Substrate in the avian osteoclast resorption assay. This substrate has the advantages of reflecting removal of both the mineral and organic phases of bone, and is resistant to artifacts due to physicochemical exchange (e.g. media acidification (16)). Weanling rats (40–60 g) are injected with 1 mCi of L-[2,3,4,5−^3H]-proline, >100 Ci/mmol, on alternate days for 10 days. Rats are sacrificed on day 12 and bone recovered by dissection. After washing, the bone is dried in a desiccator at 42° C. for 7 days. Labeled 20–40 μm bone fragments are obtained by grinding the bone in a ball bearing mill and sieving to size.
Osteoclasts are plated at 2–3×10^3 cells/well on 24 well plates with 100 μg of labeled 20–40 μm ^3H labeled bone fragments. To avoid possible contamination (due to fusing macrophages or growth of fibroblast/osteoblast cells) bone resorption is measured after 4 days. Osteoclasts rapidly (˜4 hrs) attach to and begin to degrade the bone fragments, releasing label into the media. Bone degradation is determined by measuring label released to the media. […] The ^3H proline assay is also resistant to pH-dependent artifacts and has less inter-assay variability than pi t assays (17–19). Activity, with 100 μg bone fragments, is linear over 5–7 days (16).

avian osteoclasts [2] = assay: mim-1 secretion by osteoclasts, Western analysis of lysates and media; format: cell-based; conditions: for effect on secretion of mim-1: PMA stimulated osteoclasts
Description: Avian osteoclasts were cultured as described in FIGS. 1 and 2; cells were washed with ice cold PBS and lysed. Culture media was collected from each treatment and boiled in sample buffer. Protein (25 μg) from cell lysates (Lysates) and equal aliquots of the corresponding media (Media) were resolved on 10% SDS-PAGE, transferred to PVDF membrane and Western blotted for mim-1. Molecular weights (kilodaltons) are indicated on the left. Representative of n=2 separate experiments.
Avian osteoclasts were cultured with bone (1 mg/well) for the indicated times in the presence of 0.3 μM PMA. Osteoclasts were washed with ice-cold phosphate buffered saline, lysed and 25 μg cell lysates resolved on 10% SDS-PAGE, transferred to PVDF membrane and probed with for mim-1 as described in the legend to FIG. 4. Data is representative of two separate experiments.
Avian osteoclasts are washed with phosphate buffered saline (PBS) and lysed as previously described (20). The lysis buffer (Buffer A) is 50 mM Tris, pH 7.0, 250 mM sucrose, 1 mM EGTA, 1 mM EDTA, 1 mM ammonium molybdate, 50 mM NaF, 1 mM orthovanadate, 0.5 μM okadaic acid, 5 mM benzamidine, 0.1 mM PMSF, 0.05 mg/ml pepstatin, 0.06 mg/ml leupeptin, 0.018 trypsin inhibitor units of aprotinin/ml, 10% glycerol and 1% Triton X100. Cells were solubilized 1 hr with rotation and the Triton insoluble material removed by centrifugation at 15,000×g for 5 min at 4° C. Lysates (25 μg protein) were resolved on 10% SDS-PAGE. Protein was transferred under standard conditions (21) to PVDF membranes. Mim-1 was detected on Western analysis using a polyclonal antibody generated against a trpE-mim-1 fusion protein (15) (generously provided by Scott Ness, University of New Mexico) by enhanced chemiluminescence. Protein concentrations were determined by the Bio Rad DC assay (Bio Rad, Richmond, Calif.).
To determine the effects of PMA on osteoclast secretion of mim-1 and its relation to bone resorption, osteoclasts were cultured as described above in the presence of the indicated concentrations of PMA and aliquots of media removed at the indicated times (FIG. 4) and the level of mim-1 determined b y Western analysis. As bone resorption was stimulated (see FIG. 1), mim-1 dercreased in the cell lysate (FIG. 4, left, Lysates) and increased in the culture, media (FIG. 4, right, Media).

CCCCCCCCCCCCCC(=O)O[C@@H]1[C@@H](C)[C@@]2(O)[C@@H](C=C(CO)C[C@]3(O)C(=O)C(C)=C[C@@H]23)[C@@H]2C(C)(C)[C@]12OC(C)=O [PMA, phorbol myristate acetate]
calmodulin protein levels (calmodulin): increase in calmodulin protein levels | calmodulin protein levels (calmodulin; listed as Phorbol myristate acetate): dose dependent increase | EC50 (avian osteoclasts [1]; Osteoclast, 96 h, read-out: K0.5 of stimulation of bone resorption): 100 to 300 nM | stimulation of bone resorption by isolated osteoclasts (avian osteoclasts [1]; isolated avian osteoclasts, 4 days, 3H proline released to media): 4 fold | mim-1 in osteoclast cell lysates (avian osteoclasts [2]; 0.3 μM PMA, 24 hours): substantially reduced | secretion of mim-1 by osteoclasts (avian osteoclasts [2]; increasing concentrations of PMA): rapidly increased; also recorded: stimulated in a PMA concentration dependent manner

CC/C(=C(\c1ccccc1)c1ccc(OCCN(C)C)cc1)c1ccccc1 [tamoxifen]
effect on PMA dependent increase in calmodulin levels (calmodulin; PMA stimulated osteoclasts): inhibit | effect on PMA stimulated increase in bone resorption (avian osteoclasts [1]): inhibited | effect on secretion of mim-1 (avian osteoclasts [2]): did not inhibit

CN1CCN(CCCN2c3ccccc3Sc3ccc(C(F)(F)F)cc32)CC1 [trifluoperazine]
effect on PMA stimulated increase in bone resorption (avian osteoclasts [1]): inhibited | effect on secretion of mim-1 (avian osteoclasts [2]): did not inhibit
